Measured values published in patent US20110086759A1, “CHEMICAL COMPOUNDS” (SYNGENTA CROP PROTECTION, INC., priority 2007, published 2011).

What was measured:
Format in all cases: in vivo
[1] = test system: Amaranthus retoflexus (AMARE); test: Post-emergence biological efficacy, glasshouse pot test; conditions: Amaranthus retroflexus, 312 h; Rate 1,000 g/ha; post-emergence spray; evaluated after 13 days (100=total damage to plant; 0=no damage to plant); read-out: Percentage damage caused to weed species, post-emergence, AMARE
How it was run: (§1)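 Pot-grown weeds were sprayed 8 days after sowing with test compound in acetone/water (50:50) with 0.5% Tween 20 at 1000 or 250 g/ha. Glasshouse at 24/16° C day/night, 14 h light, 65% humidity. Damage scored 0-100 (100 = total damage) after 13 days.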

[2] = test system: Echinochloa crus-galli (ECHCG); test: as above; conditions: 312 h, Rate 1,000 g/ha, post-emergence spray, evaluated after 13 days (100=total damage to plant; 0=no damage to plant), read-out: Percentage damage caused to weed species, post-emergence, ECHCG
How it was run: as §1

[3] = test system: Alopecurus myosuroides (ALOMY); test: as above; conditions: 312 h, Rate 1,000 g/ha, post-emergence spray, evaluated after 13 days (100=total damage to plant; 0=no damage to plant), read-out: Percentage damage caused to weed species, post-emergence, ALOMY
How it was run: as §1

[4] = test system: Ipomea hederaceae (IPOHE); test: as above; conditions: Ipomoea hederacea, 312 h; Rate 1,000 g/ha; post-emergence spray; evaluated after 13 days (100=total damage to plant; 0=no damage to plant); read-out: Percentage damage caused to weed species, post-emergence, IPOHE
How it was run: as §1

Solanum nigrum (SOLNI) [5] = test: as above; conditions: 312 h, Rate 1,000 g/ha, post-emergence spray, evaluated after 13 days (100=total damage to plant; 0=no damage to plant), read-out: Percentage damage caused to weed species, post-emergence, SOLNI
How it was run: as §1

Setaria faberi (SETFA) [6] = test: as above; conditions: 312 h, Rate 1,000 g/ha, post-emergence spray, evaluated after 13 days (100=total damage to plant; 0=no damage to plant), read-out: Percentage damage caused to weed species, post-emergence, SETFA
How it was run: as §1

[7] = test system: Amaranthus retoflexus (AMARE); test: Pre-emergence biological efficacy, glasshouse pot test; conditions: Amaranthus retroflexus, 312 h; pre-emergence, rate 1,000 g/ha, evaluated after 13 days (100=total damage to plant; 0=no damage); read-out: Percentage damage caused to weed species, AMARE
How it was run: (§2)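 Glasshouse pot test: spray on soil one day after sowing, 1000 or 250 g/ha. Conditions 24/16 °C day/night, 14 h light, 65% humidity. Plant damage scored 0–100 at 13 days.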

[8] = test system: Echinochloa crus-galli (ECHCG); test: as above; conditions: 312 h, pre-emergence, rate 1,000 g/ha, evaluated after 13 days (100=total damage to plant; 0=no damage), read-out: Percentage damage caused to weed species, ECHCG
How it was run: as §2

[9] = test system: Alopecurus myosuroides (ALOMY); test: as above; conditions: 312 h, pre-emergence, rate 1,000 g/ha, evaluated after 13 days (100=total damage to plant; 0=no damage), read-out: Percentage damage caused to weed species, ALOMY
How it was run: as §2

[10] = test system: Ipomea hederaceae (IPOHE); test: as above; conditions: Ipomoea hederacea, 312 h; pre-emergence, rate 1,000 g/ha, evaluated after 13 days (100=total damage to plant; 0=no damage); read-out: Percentage damage caused to weed species, IPOHE
How it was run: as §2

Solanum nigrum (SOLNI) [11] = test: as above; conditions: 312 h, pre-emergence, rate 1,000 g/ha, evaluated after 13 days (100=total damage to plant; 0=no damage), read-out: Percentage damage caused to weed species, SOLNI
How it was run: as §2

Setaria faberi (SETFA) [12] = test: as above; conditions: 312 h, pre-emergence, rate 1,000 g/ha, evaluated after 13 days (100=total damage to plant; 0=no damage), read-out: Percentage damage caused to weed species, SETFA
How it was run: as §2

SMILES | pest or weed control at 1000 g/ha [1] [%] | pest or weed control at 1000 g/ha [2] [%] | pest or weed control at 1000 g/ha [3] [%] | pest or weed control at 1000 g/ha [4] [%] | pest or weed control at 1000 g/ha (Solanum nigrum (SOLNI) [5]) [%] | pest or weed control at 1000 g/ha (Setaria faberi (SETFA) [6]) [%] | pest or weed control at 1000 g/ha [7] [%] | pest or weed control at 1000 g/ha [8] [%] | pest or weed control at 1000 g/ha [9] [%] | pest or weed control at 1000 g/ha [10] [%] | pest or weed control at 1000 g/ha (Solanum nigrum (SOLNI) [11]) [%] | pest or weed control at 1000 g/ha (Setaria faberi (SETFA) [12]) [%]
COC(=O)c1nc(C2CC2)nc(N(C)Cc2ccco2)c1Cl [Compound 5-125, 5-Chloro-2-cyclopropyl-4-(N-furan-2-ylmethyl-N-methyl-amino)-6-methoxycarbonyl-pyrimidine] | 100 | 60 | 50 | 100 | 90 | 80 | 100 | 70 | 40 | 100 | 90 | 80
COC(=O)c1nc(C2CC2)nc(N(C)Cc2ccc(C)o2)c1Cl [Compound 5-135, 5-Chloro-2-cyclopropyl-6-methoxycarbonyl-4-[N-methyl-N-(5-methylfuran-2-ylmethyl)-amino]-pyrimidine] | 100 | 40 | 30 | 100 | 90 | 80 | 100 | 0 | 30 | 100 | 90 | 10
COC(=O)c1nc(C2CC2)nc(N(C)Cc2nonc2C)c1Cl [Compound 5-149, 5-Chloro-2-cyclopropyl-6-methoxycarbonyl-4-[N-methyl-N-(4-methyl-1,2,5-oxadiazol-3-ylmethyl)-amino]-pyrimidine] | 100 | 40 | 40 | 90 | 90 | 80 | 80 | 20 | 30 | 80 | 40 | 10
COC(=O)c1nc(C2CC2)nc(N(C)Cc2cccnc2)c1Cl [Compound 5-156, 5-Chloro-2-cyclopropyl-6-methoxycarbonyl-4-(N-methyl-N-pyridin-3-ylmethyl-amino)pyrimidine] | 100 | 20 | 30 | 80 | 80 | 60 | 90 | 0 | 10 | 60 | 20 | 0
COC(=O)c1nc(C2CC2)nc(N(C)Cc2ccncc2)c1Cl [Compound 5-160, 5-Chloro-2-cyclopropyl-6-methoxycarbonyl-4-(N-methyl-N-pyridin-4-ylmethyl-amino)pyrimidine] | 100 | 0 | 20 | 100 | 80 | 60 | 80 | 20 | 0 | 70 | 40 | 0
COC(=O)c1nc(C2CC2)nc(N(C)CCc2ccccc2)c1Cl [Compound 5-221, 5-Chloro-2-cyclopropyl-6-methoxycarbonyl-4-[(N-methyl)-N-(2-phenylethyl)-amino]pyrimidine] | 100 | 30 | 10 | 100 | 80 | 40 | 30 | 0 | 0 | 40 | 30 | 0
COC(=O)c1nc(C2CC2)nc(N(C)CCc2ccccn2)c1Cl [Compound 5-228, 5-Chloro-2-cyclopropyl-6-methoxycarbonyl-4-[N-methyl-N-(2-pyrid-2-ylethyl)-amino]pyrimidine] | 100 | 30 | 20 | 90 | 70 | 40 | 80 | 0 | 0 | 0 | 70 | 0
COC(=O)c1nc(C2CC2)nc(N(C)CC(O)c2ccccc2)c1Cl (stereo not drawn) [Compound 5-257, 5-Chloro-2-cyclopropyl-4-[N-(2-hydroxy-2-phenyl-ethyl)-N-methyl-amino]-6-methoxy-carbonylpyrimidine] | 100 | 30 | 20 | 80 | 80 | 50 | 100 | 30 | 10 | 50 | 100 | 10
COC(=O)c1nc(C2CC2)nc(N(C)C(C)C(O)c2ccccc2)c1Cl (stereo not drawn) [Compound 5-270, 5-Chloro-2-cyclopropyl-4-[N-(2-hydroxy-1-methyl-2-phenyl-ethyl)-N-methyl-amino]-6-methoxycarbonyl-pyrimidine] | 90 | 0 | 10 | 90 | 80 | 30 | 90 | 0 | 10 | 20 | 50 | 0
CCN(c1nc(C2CC2)nc(C(=O)OC)c1Cl)C1CCCCC1 [Compound 6-35, 5-Chloro-4-(N-cyclohexyl-N-ethyl-amino)-2-cyclo-propyl-6-methoxy-carbonylpyrimidine] | 70 | 0 | 0 | 80 | 70 | 40 | 100 | 0 | 10 | 30 | 60 | 0
CCN(Cc1ccccc1)c1nc(C2CC2)nc(C(=O)OC)c1Cl [Compound 6-60, 5-Chloro-2-cyclopropyl-4-([N-ethyl-N-phenylmethyl]-amino)-6-methoxycarbonyl-pyrimidine] | 100 | 70 | 30 | 100 | 90 | 90 | 100 | 20 | 20 | 20 | 100 | 30
